Experimental data from patent US20250042918A1, “COMPOUNDS” (Fundación Del Sector Públlco Estatal Centro Nacional De …, priority 2021, published 2025).

Experiments:
[1] = tested on: HCC1954; assay: In vitro potency against breast cancer cell lines (CellTiter Glo); format: cell-based; conditions: Homo sapiens, HCC1954, 72 h; read-out: absolute IC50 HCC1954
Description: (§1) To prepare the complete medium FBS and appropriate additives were added according to the information sheet provided by the vendor and mixed gently. The cell name and complete medium and passage number marked on the flask were checked, and the culture medium removed and discarded using a vacuum pump. […] 3.0 ml of Trypsin-EDTA solution was added to the flask and the cells observed under an inverted microscope until cell layer is dispersed. 8.0 ml of complete growth medium was added and the cells aspirated by gently pipetting. The cell suspension was transferred to a centrifuge tube and centrifuged at 800-1000 rpm for 3-5 minutes. The supernatant was discarded using a vacuum pump, and an appropriate volume of complete medium added. The cell pellet was suspended by gently pipetting, and the cell numbers counted with Vi-cell XR and the cells adjusted to appropriate density. 100 μL of cell suspension to 96-well opaque-walled clear bottom plates was added according to the planned plate layout and the plates placed in the CO2 incubator overnight.
(§2) c. […] Meanwhile the day 0 plate was measured by Cell TiterGlo as listed below.
(§3) d. Cells were incubated with the compounds for 72 h at 5% CO2, 37° C.
(§4) The CellTiter-Glo buffer was thawed and equilibrated to room temperature prior to use. The lyophilized CellTiter-Glo substrate was equilibrated to room temperature prior to use. The appropriate volume of CellTiter-Glo buffer was transferred into the amber bottle containing CellTiter-Glo substrate to reconstitute the lyophilized enzyme/substrate mixture, thereby forming the CellTiter-Glo reagent. Mixing was carried out by gently vortexing, swirling or by inverting the contents to obtain a homogeneous solution, the CellTiter-Glo substrate going into solution easily in less than one minute.
(§5) The plate and its contents were equilibrated to room temperature for approximately 30 minutes, after which 100 μL of CellTiter-Glo reagent was added to the assay plate by Multidrop Combi instrument and the contents mixed for 10 minutes on an orbital shaker to induce cell lysis. The plate was allowed to incubate at room temperature for 10 minutes to stabilize luminescent signal and the clear bottom pasted with white back seal and the luminescence recorded with Enspire with the settings: Luminescence, measurement time 0.1 ms.

[2] = tested on: T-47D; assay: as above; format: cell-based; conditions: Homo sapiens, T47D, 72 h; read-out: absolute IC50 T-47D
Description: as §1, §2, §3, §4, §5

[3] = tested on: BT-474; assay: as above; format: cell-based; conditions: Homo sapiens, BT-474, 72 h; read-out: absolute IC50 BT-474
Description: as §1, §2, §3, §4, §5

[4] = tested on: HCC38; assay: as above; format: cell-based; conditions: Homo sapiens, HCC38, 72 h; read-out: absolute IC50 HCC38
Description: as §1, §2, §3, §4, §5

[5] = tested on: MDA-MB-361; assay: as above; format: cell-based; conditions: Homo sapiens, MDA-MB-361, 72 h; read-out: absolute IC50 MDA-MB-361
Description: as §1, §2, §3, §4, §5

[6] = tested on: HCC1143; assay: as above; format: cell-based; conditions: Homo sapiens, HCC1143, 72 h; read-out: absolute IC50 HCC1143
Description: as §1, §2, §3, §4, §5

[7] = tested on: human leukaemia KG-1 subcutaneous xenograft; assay: In vivo efficacy in leukaemia model, subcutaneous xenograft; conditions: KG-1 xenograft, CB-17 SCID mice, oral 25 BID, 50 and 100 mg/kg QD, 21 days
Description: The anti-tumour efficacy of the compound of Example 1 was measured in human leukaemia KG-1 subcutaneous xenograft models in CB-17 SCID mice.
Mice grouping was on day 0 (DO) and Example 1 25 BID*21 group was started on the evening of day 0 (DO), other groups were started on the morning of day 1 (D1). At the 21 days of the treatment, 8 h and 24h post the last dose, 4 mice each from vehicle group, Example 1 25 mg/kg BID group and Example 1 50 mg/kg group were subjected tumour collection.
Animals: Female mice (Mus musculus) strain: CB-17 SCID; 6-8 weeks old Body weight: 18-20 g; were obtained from Shanghai Lingchang BioTech Co., Ltd. Of the 59 obtained, 40 were grouped for efficacy study. The mice were kept in individual ventilation cages at constant temperature (20˜26° C.) and humidity (40-70%) with 5 animals in each cage. […]
Tumour Measurements and the Endpoints: The major endpoint was tumour growth delay or cure. Tumour size was measured thrice weekly in two dimensions using a caliper, and the volume was expressed in mm^3 using the formula: V=0.5 a×b^2 where a and b were the long and short diameters of the tumour, respectively. […] TGI was calculated according to the following equation: […]

`CN1CCOc2c1c(N[C@H]1CC[C@@](C)(O)CC1)nn1c(-c3cccc(OC(F)(F)F)c3)nnc21` [Example 1, 1-Methyl-4-[6-methyl-3-(3-trifluoromethoxy-phenyl)-7,8-dihydro-6H-9-oxa-1,2,3a,4,6-pentaaza-cyclopenta[a]naphthalen-5-ylamino]-cyclohexanol] gave an IC50 [1] of 8.04 µM, an IC50 [2] of 6.19 µM and an IC50 [3] of 7.77 µM. The IC50 [4] was 5.56 µM, the IC50 [5] was 9 µM and the IC50 [6] was 5.56 µM. For the same molecule, the “anti-tumour efficacy (tumour volume)” value [7] was “effective”.
